In US11986471B2, “Compounds and methods of use” (Tango Therapeutics, Inc., priority 2018, dated 2024):
One block for each compound: values may come before it.

Columns and labels:
[1] = molecular target: T1, PRMT5 (Homo sapiens, UniProt O14744); test: PRMT5 IC50 assay in the presence of MTA as cofactor; type: biochemical; conditions: for IC50: PRMT5, MTA as cofactor; for SAM/MTA Ratio: ratio between Ki in the presence of SAM and Ki in the presence of MTA
T1 construct: purchased Viva (custom protein)
Summary of the method: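 Ki conversion: SAM arm, Ki=IC50/1.5; MTA arm, Ki=IC50/13.5. No-cofactor arm reported as IC50 only. Selectivity expressed as Ki(SAM)/Ki(MTA).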

[2] = test system: HAP1 MTAP-deleted; test: SDMA in-cell western assay, HAP1 MTAP-deleted cell line; type: cell-based; conditions: for IC50: Homo sapiens, HAP1 MTAP-deleted cell line; for MTAP Intact/Deleted Ratio: IC50 ratio HAP1 MTAP-intact / HAP1 MTAP-deleted
Summary of the method: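 MTAP-null HAP1 cells, the deleted member of an isogenic pair with endogenously MTAP-expressing HAP1, are treated with compound. SDMA is then quantified by in-cell western and an IC50 is calculated.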

[3] = molecular target: T1, PRMT5; test: PRMT5 IC50 assay with no cofactor; type: biochemical; conditions: read-out: No Co-factor IC50
Summary of the method: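 Three cofactor conditions are run: SAM-bound, MTA-bound and cofactor-free enzyme. IC50 is read from each; for the SAM and MTA arms it is divided by 1.5 and 13.5 respectively to give Ki.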

[4] = molecular target: T1, PRMT5; test: PRMT5 IC50 assay in the presence of SAM as cofactor; type: biochemical
Summary of the method: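 Values reflect IC50 (μM) on human PRMT5 under three cofactor states. Selectivity is derived as the quotient of SAM-state Ki over MTA-state Ki, with each Ki obtained from its IC50.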

[5] = test system: HAP1 MTAP-intact; test: SDMA in-cell western assay, HAP1 MTAP-intact cell line; type: cell-based; conditions: Homo sapiens
Summary of the method: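 Cells from two matched HAP1 lines, MTAP-null and MTAP-expressing at endogenous levels, are treated with compound. SDMA is then quantified by in-cell western and an IC50 is calculated for each line.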

T1 sequence (O14744 whole entry): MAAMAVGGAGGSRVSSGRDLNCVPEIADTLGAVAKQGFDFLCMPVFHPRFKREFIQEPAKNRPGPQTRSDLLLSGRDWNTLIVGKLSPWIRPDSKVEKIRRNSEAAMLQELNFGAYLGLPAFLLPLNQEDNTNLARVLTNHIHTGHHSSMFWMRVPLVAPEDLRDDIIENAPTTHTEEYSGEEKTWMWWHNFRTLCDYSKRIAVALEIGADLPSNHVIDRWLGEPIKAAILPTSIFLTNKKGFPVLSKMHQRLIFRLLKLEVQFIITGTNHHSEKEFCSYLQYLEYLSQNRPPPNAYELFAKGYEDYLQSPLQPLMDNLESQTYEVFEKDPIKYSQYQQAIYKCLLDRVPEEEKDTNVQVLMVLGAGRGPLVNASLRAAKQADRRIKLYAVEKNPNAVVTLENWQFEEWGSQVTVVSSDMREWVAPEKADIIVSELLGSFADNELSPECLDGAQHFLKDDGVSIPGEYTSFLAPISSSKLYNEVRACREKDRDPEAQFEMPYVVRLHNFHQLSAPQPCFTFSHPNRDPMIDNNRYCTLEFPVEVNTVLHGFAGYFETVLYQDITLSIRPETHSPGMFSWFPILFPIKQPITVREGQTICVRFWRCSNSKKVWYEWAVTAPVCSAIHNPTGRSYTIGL
T1 sequence (Q9BQA1 whole entry partner): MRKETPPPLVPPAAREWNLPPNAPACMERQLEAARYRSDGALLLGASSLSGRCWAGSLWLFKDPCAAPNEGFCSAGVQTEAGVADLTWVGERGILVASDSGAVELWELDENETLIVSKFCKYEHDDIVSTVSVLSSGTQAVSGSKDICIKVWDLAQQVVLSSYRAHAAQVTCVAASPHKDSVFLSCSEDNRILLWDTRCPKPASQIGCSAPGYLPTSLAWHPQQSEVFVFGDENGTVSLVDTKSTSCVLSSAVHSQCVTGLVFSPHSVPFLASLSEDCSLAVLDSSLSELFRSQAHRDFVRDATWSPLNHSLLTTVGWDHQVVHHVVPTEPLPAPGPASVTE

SMILES: Cc1ncoc1COc1ccc2c(c1I)CCN(C[C@@H](O)CNC(=O)c1ccnc(NC3CCC3)c1)C2 [Compound 268, 2-(cyclobutylamino)-N-[(2S)-2-hydroxy-3-[5-iodo-6-[(4-methyloxazol-5-yl)methoxy]-3,4-dihydro-1H-isoquinolin-2-yl]propyl]pyridine-4-carboxamide]
IC50 [1]: 0.5 to 5 µM
IC50 [2]: ≥ 10 µM
MTAP Intact/Deleted Ratio [2]: C* (an IC50 ratio of less than 3 fold between the IC50 in the HAP1 MTAP-intact cell line and the HAP1 MTAP-deleted cell line)
IC50 [3]: ≥ 5 µM
IC50 [4]: 0.5 to 5 µM
IC50 [5]: ≥ 10 µM

SMILES: O=C(NC[C@H](O)CN1CCc2cc(OCc3cnco3)ccc2C1)c1cncc(NC2CCC2)c1 [Compound 270, (S)-5-(cyclobutylamino)-N-(2-hydroxy-3-(6-(oxazol-5-ylmethoxy)-3N-dihydroisoquinolin-2(1H)-yl)propyl)nicotinamide]
IC50 [1]: 0.05 to 0.5 µM
SAM/MTA Ratio [1]: A (a Ki ratio greater than or equal to 10 fold between the Ki in the presence of SAM and the Ki in the presence of MTA)
IC50 [2]: < 1 µM
MTAP Intact/Deleted Ratio [2]: C* (an IC50 ratio of less than 3 fold between the IC50 in the HAP1 MTAP-intact cell line and the HAP1 MTAP-deleted cell line)
IC50 [3]: 0.5 to 5 µM
IC50 [4]: 0.05 to 0.5 µM
IC50 [5]: < 1 µM

SMILES: Cc1ncoc1COc1ccc2c(c1)CCN(C[C@@H](O)CNC(=O)c1cncc(NC3CCC3)c1)C2 [Compound 271, (S)-5-(cyclobutylamino)-N-(2-hydroxy-3-(6-((4-methyloxazol-5-yl)methoxy)-3N-dihydroisoquinolin-2(1H)-yl)propyl)nicotinamide]
IC50 [1]: 0.05 to 0.5 µM
SAM/MTA Ratio [1]: A (a Ki ratio greater than or equal to 10 fold between the Ki in the presence of SAM and the Ki in the presence of MTA)
IC50 [2]: < 1 µM
MTAP Intact/Deleted Ratio [2]: C* (an IC50 ratio of less than 3 fold between the IC50 in the HAP1 MTAP-intact cell line and the HAP1 MTAP-deleted cell line)
IC50 [3]: 0.5 to 5 µM
IC50 [4]: 0.05 to 0.5 µM
IC50 [5]: < 1 µM

SMILES: Cc1ncoc1COc1ccc2c(c1C)CCN(C[C@@H](O)CNC(=O)c1ccnc(NC3CCC3)c1)C2 [Compound 272, (S)-2-(cyclobutylamino)-N-(2-hydroxy-3-[5-methyl-6-((4-methyloxazol-5-yl)methoxy)-3N-dihydroisoquinolin-2(1H)-yl)propyl)isonicotinamide]
IC50 [1]: 0.05 to 0.5 µM
SAM/MTA Ratio [1]: A (a Ki ratio greater than or equal to 10 fold between the Ki in the presence of SAM and the Ki in the presence of MTA)
IC50 [2]: 1 to 10 µM
MTAP Intact/Deleted Ratio [2]: C* (an IC50 ratio of less than 3 fold between the IC50 in the HAP1 MTAP-intact cell line and the HAP1 MTAP-deleted cell line)
IC50 [3]: ≥ 5 µM
IC50 [4]: 0.05 to 0.5 µM
IC50 [5]: ≥ 10 µM

Now from value to compound, other results behind:

IC50 [1]: 0.5 to 5 µM
IC50 [2]: 1 to 10 µM
IC50 [3]: ≥ 5 µM
IC50 [4]: 0.5 to 5 µM
IC50 [5]: ≥ 10 µM
SMILES: Cc1c(OCc2cnn[nH]2)ccc2c1CCN(C[C@@H](O)CNC(=O)c1ccnc(NC3CCC3)c1)C2 [Compound 273, (S)—N-(3-(6-((1H-1,2,3-triazol-5-yl)methoxy)-5-methyl-3,4-dihydroisoquinolin-2(1H)-yl)-2-hydroxypropyl)-2-(cyclobutylamino)isonicotinamide]
MTAP Intact/Deleted Ratio [2]: C* (an IC50 ratio of less than 3 fold between the IC50 in the HAP1 MTAP-intact cell line and the HAP1 MTAP-deleted cell line)

IC50 [1]: 0.05 to 0.5 µM
IC50 [2]: 1 to 10 µM
IC50 [3]: ≥ 5 µM
IC50 [4]: 0.05 to 0.5 µM
IC50 [5]: ≥ 10 µM
SMILES: CC(=O)N1CCC(Nc2cc(C(=O)NC[C@H](O)CN3CCc4c(ccc(OCc5ocnc5C)c4C)C3)ncn2)CC1 [Compound 274, (S)-6-((1-acetylpiperidin-4-yl)amino)-N-(2-hydroxy-3-(5-methyl-6-((4-methyloxazol-5-yl)methoxy)-3,4-dihydroisoquinolin-2(1H)-yl)propyl)pyrimidine-4-carboxamide]
SAM/MTA Ratio [1]: A (a Ki ratio greater than or equal to 10 fold between the Ki in the presence of SAM and the Ki in the presence of MTA)
MTAP Intact/Deleted Ratio [2]: C* (an IC50 ratio of less than 3 fold between the IC50 in the HAP1 MTAP-intact cell line and the HAP1 MTAP-deleted cell line)
